Laboratory results as given in PubChem BioAssay (NCI).
Several values for one entry are separate records, joined by “and”; a condition that tells them apart may be missing. Equal entries are not always repeated.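 A five-concentration, 48-hour dose response in 96-well plates underlies each endpoint, interpolated linearly between surrounding concentrations. GI50 = concentration required for 50% inhibition of growth. The concentration for full growth arrest is given as TGI.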

Assays:
Experiment in all cases: growth of human tumour cells (NCI), 48 h
MALME-3M melanoma = system: MALME-3M melanoma
COLO 205 colon = system: COLO 205 colon
U251 CNS = system: U251 CNS
MDA-MB-435 = system: MDA-MB-435
SF-268 CNS = system: SF-268 CNS
A549 NSCLC = system: A549 NSCLC
UACC-62 melanoma = system: UACC-62 melanoma
NCI-H23 lung = system: NCI-H23 lung
NCI/ADR-RES ovarian = system: NCI/ADR-RES ovarian
LOX IMVI melanoma = system: LOX IMVI melanoma

SMILES | TGI (MALME-3M melanoma) [µM] | TGI (COLO 205 colon) | TGI (U251 CNS) | TGI (MDA-MB-435) | TGI (SF-268 CNS) | TGI (A549 NSCLC) | TGI (UACC-62 melanoma) [µM] | TGI (NCI-H23 lung) | TGI (NCI/ADR-RES ovarian) [µM] | TGI (LOX IMVI melanoma) | GI50 (MALME-3M melanoma) [µM] | GI50 (COLO 205 colon) [µM] | GI50 (U251 CNS) [µM] | GI50 (MDA-MB-435) [µM] | GI50 (SF-268 CNS) [µM] | GI50 (A549 NSCLC) [µM] | GI50 (UACC-62 melanoma) [µM] | GI50 (NCI-H23 lung) [µM] | GI50 (NCI/ADR-RES ovarian) [µM] | GI50 (LOX IMVI melanoma) [µM]
O=C(/C=C/c1ccccc1)CCc1c(O)c2ccccc2oc1=O | > 100 | > 100 µM | > 100 µM | > 100 µM | > 100 µM | > 100 µM | > 100 | > 100 µM | > 100 | > 100 µM |  |  |  |  |  |  |  |  |  | 
c1ccc(-c2cnc3nc4ccccc4nc3n2)cc1 | 15.8 | 17.6 µM | 22.4 µM | 3.22 µM | 17.8 µM | 23.6 µM | 15.4 | 22 µM | 39 | 20.1 µM |  |  |  |  |  |  |  |  |  | 
O=S1(=O)CC(Br)C(Br)C1 (centres undefined) | 13.1 | 3.17 µM | 23.6 µM | 18.6 µM | > 100 µM | 28.9 µM | 18.7 | 26 µM | > 100 | 10 µM | 3.91 | 1.61 | 7.28 | 4.16 | 21.5 | 13.5 | 5.39 | 7.88 | 5.26 | 0.628
COc1cc(CC2CC(c3ccc4c(c3)OCO4)OC2=O)cc(OC)c1OC (centres undefined) | > 100 | > 100 µM | > 100 µM | > 100 µM | > 100 µM | > 100 µM | > 100 | > 100 µM | > 100 | > 100 µM |  |  |  |  |  |  |  |  |  | 
COc1cccc2ccc3c(c12)C(=O)OC31CCc2c(C)cccc21 (centres undefined) | > 46.4 | > 46.4 µM | > 46.4 µM | > 100 µM | > 46.4 µM | > 46.4 µM | > 46.4 | > 46.4 µM | > 100 | > 46.4 µM |  |  |  |  |  |  |  |  |  | 
N#C/C(=C\c1cccnc1)c1nc2ccccc2o1 | > 100 | > 100 µM | > 100 µM | > 100 µM | > 100 µM | > 100 µM | > 100 | > 100 µM | > 100 | > 100 µM | 21.8 | > 100 | > 100 | > 100 | > 100 | > 100 | > 100 | > 100 | > 100 | > 100
N#Cc1ccc2c(c1)C(=O)c1c-2n(CCCN=[N+]=[N-])c(=O)c2cc([N+](=O)[O-])ccc12 | > 50 | > 50 µM | > 50 µM | > 50 µM | > 50 µM |  | > 50 | > 50 µM | > 50 | > 50 µM | > 50 | > 50 | 4.49 | > 50 | 5.03 |  | 3.6 | 49.5 | > 50 | 4.85
C=C1C[C@@H]2[C@H](CC[C@]3(C)C(=O)CC[C@@H]23)[C@@]2(C)C=CC(=O)C=C12 | > 73.4 | 41 µM | > 70.5 µM | > 81.5 µM | > 100 µM | > 51.8 µM | 30 | 44.3 µM | > 92 | 45.5 µM | > 43.9 | 20.3 | 23.5 | 26.3 | 57.1 | 11.5 | 8.11 | 16.5 | 30.6 | 19.2
CCC(=O)OC1=CN2C(=NC(c3ccc(N)cc3)=CC2c2cc(OC)c(OC)c(OC)c2)S1 (centres undefined) | 16.3 | 10.7 µM | 13.8 µM | 14.1 µM | 14.4 µM | 26 µM | 11.8 | 35.6 µM | > 100 | 13 µM | 4 | 3.72 | 3.49 | 2.98 | 3.57 | 3.22 | 3.03 | 5.82 | 3.73 | 3.45
COc1cc(/C=C/c2cc(/C=C/c3ccc(O)c(OC)c3)[nH]c(=O)n2)ccc1O | > 100 | 4.03 µM | 13.5 µM | 18.2 µM | > 100 µM | 27.6 µM | 43.2 |  | > 100 | > 100 µM | 3.91 | 2.03 | 3.15 | 2.72 | 4.58 | 5.2 | 3.39 |  | 16.7 | 3.16
CN(C)CCNc1c2c(c(NCCN(C)C)c3c(CO)c[nH]c13)C(=O)c1ccccc1C2=O | 6.83 | > 37.5 µM | 22.5 µM | 20.6 µM | 22.1 µM | > 37.6 µM | 21.7 | > 21.9 µM | 22.7 | 10 µM | 2.4 | 2.74 | 3.07 | 4.56 | 4.27 | 3.41 | 7.64 | 2.31 | 4.06 | 1.97
C(#Cc1ccccc1C#Cc1ccccn1)c1ccccn1 | 21 | 46.4 µM | 25.3 µM | 22.5 µM | 35.7 µM | 44.3 µM | 28.6 | 46.4 µM | 29.4 | 30.9 µM | 7.74 | 16.9 | 11.5 | 8.43 | 17.7 | 20.5 | 14.7 | 19 | 5.45 | 15.4
C[C@]12CC[C@H]3[C@@H](CCC4=C[C@@H](OC5OCC(OC6OC(CO)C(O)C(O)C6O)C(O)C5O)CC[C@@]43C=O)[C@@]1(O)CCC2C1=CC(=O)OC1 (some centres undefined) | 2.19 | 3.25 µM | 8.84 µM | 3.71 µM | 1.64 µM | 0.484 µM | 4.29 | 1.08 µM | 3.28 | 2.96 µM |  |  |  |  |  |  |  |  |  | 
CC[C@H](C)[C@H](NC(=O)c1nccn1C)C(=O)N(C)[C@H](C[C@@H](OC(C)=O)c1nc(C(=O)N[C@@H](Cc2ccccc2)C[C@H](C)C(=O)OC)cs1)C(C)C | > 33.3 | 4.11 µM | > 33.3 µM | 0.428 µM | > 33.3 µM | > 33.3 µM | > 33.3 | > 33.3 µM | > 33.3 | > 33.3 µM | 5.87 | 0.99 | 1.38 | 0.0944 | 1.43 | 2.43 | 0.289 | 1.36 | 3.18 | 1.59
S=c1[nH]nc(SCc2ccccc2Cl)c2[nH]cnc12 | > 100 | > 100 µM | > 100 µM | > 100 µM | > 100 µM | > 100 µM | > 100 | > 100 µM | > 100 | > 100 µM |  |  |  |  |  |  |  |  |  | 
CC(C)(O)CCC(O)C(C)(O)C1CCC2(O)C3=CC(=O)C4(O)CC(O)C(O)CC4(C)C3CCC12C (centres undefined) (tested in a mixture with another compound) | > 100 | > 100 µM | > 100 µM | > 100 µM | > 100 µM | > 100 µM | > 100 | > 100 µM | > 100 | > 100 µM |  |  |  |  |  |  |  |  |  | 
COc1cc(N=Nc2cccc(S(N)(=O)=O)c2)c2ccccc2c1N | 3.13 | 26.5 µM | 22.5 µM | 3.71 µM | 31.9 µM | 33 µM | 4.19 | 6.72 µM | > 68.5 | 18.1 µM |  |  |  |  |  |  |  |  |  | 
Cc1[nH]n(-c2ccccc2)c(=O)c1C(=O)c1ccccc1 | > 25 | > 25 µM | > 25 µM | > 25 µM | > 25 µM | > 25 µM | > 25 | > 25 µM | > 25 | > 25 µM | > 25 | > 25 | 16.2 | > 25 | > 25 | 11.7 | > 25 | > 25 | > 23.8 | > 25
N#Cc1ncc(N2C(=O)C3(CCC3)N(c3ccc(OC4CCNCC4)nc3)C2=S)cc1C(F)(F)F | 27.6 | 28.3 µM | 48.7 µM | 31.3 µM | 43.2 µM | > 100 µM | 31.5 | 32.1 µM | 81.9 | 24 µM | 13.2 | 14.2 | 20.2 | 15.8 | 18.6 | 27.7 | 15.9 | 13.9 | 25.2 | 11.2
N#CC1CCc2c(c(-c3cn[nH]c3C(F)(F)F)nc3c(F)cc4[nH]ncc4c23)C1 (centres undefined) | 11.5 | 16.1 µM | > 100 µM | 41.1 µM | 27.4 µM | > 100 µM | 11.5 | 28.4 µM | > 100 | 15.3 µM | 3.31 | 4.23 | 15.1 | 4.43 | 5.02 | 21.2 | 3.43 | 5.36 | > 100 | 3.45
COc1ccc(/C=C/c2cnc3ccccc3n2)cc1OC | > 100 | > 100 µM | > 100 µM | > 100 µM | > 100 µM | > 100 µM | > 100 | > 100 µM | > 100 | > 100 µM |  |  |  |  |  |  |  |  |  | 
C[C@H]1CCC/C=C/[C@@H]2C[C@H](O)C[C@H]2[C@H](O)[C@@H](SC2OC(CO)C(O)C(O)C2O)CC(=O)O1 (some centres undefined) | 69.4 | 41.6 µM | > 100 µM | > 100 µM |  | > 100 µM | > 100 | > 100 µM | > 100 | > 100 µM | 27.6 | 19.4 | > 100 | 69.8 |  | > 100 | 33.6 | 47.9 | 43.3 | 35.7
C[C@H]1CC2=CC(=O)CC[C@]2(C)[C@H]2CC[C@@]3(C)[C@@H](CC[C@]3(C)O)[C@H]12 | > 92.4 | 36.1 µM | > 100 µM | > 88 µM | > 100 µM | > 100 µM | > 67 | > 100 µM | > 86.5 | > 100 µM | 26 | 15.8 | 31 | 29.3 | 33.3 | 31.9 | 22.2 | 38.2 | 28.7 | 29.2
CN(C)c1ccc(N=C(C#N)c2nc(N)nc(N3CCN(c4ccccc4)CC3)n2)cc1 | 1.16 | > 50 µM | > 50 µM | > 50 µM | 34.9 µM | > 34.2 µM | > 50 | > 50 µM | > 50 | > 45.1 µM | 0.0338 | > 42.4 | > 35.1 | > 43.9 | 11.7 | 15.3 | > 50 | > 50 | 34.2 | 19.6
O=[N+]([O-])c1ccc(NC(=S)N/N=C(\c2ccccc2)c2ccccn2)cc1 | 3.52 | 2.52 µM and 3.88 µM | 3 µM and 2.68 µM | 3.15 µM and 3.17 µM | 1.9 µM and 1.84 µM | 3.37 µM and 3.96 µM | 2.92 | 3.53 µM and 13.3 µM | 5.12 | 2.89 µM and 5.03 µM |  | 0.0423 |  |  |  |  | 3.4 | 1.71 |  | 1.37
O=c1oc2cc(OS(=O)(=O)c3ccccc3)ccc2c2c1CCCCC2 | > 100 | > 100 µM | > 100 µM | > 100 µM | > 100 µM | > 100 µM | > 100 | > 100 µM | > 100 | > 100 µM | 29.4 | 3.51 | 4.51 | 9.44 | > 100 | 4.78 | 4.73 | 7.27 | 4.53 | 8.71
C=C(C)[C@@H]1CC[C@]2(C)[C@H](CC=C3[C@@H]4[C@H](C)[C@@H](C)CC[C@]4(CO)CC[C@]32C)[C@@]1(C)CCCN | 1.42 | 1.94 µM |  | 1.81 µM | 2.69 µM | 5.11 µM | 12.6 | 4 µM | 2.17 | 1.57 µM | 0.734 | 0.899 |  | 0.953 | 1.22 | 1.59 | 5.82 | 1.34 | 0.986 | 0.859
Cc1ccc(/C=C2\CN(Cc3cn(CCNc4ccnc5cc(Cl)ccc45)nn3)C/C(=C\c3ccc(C)cc3)C2=O)cc1 | 3.47 | 3.42 µM | 3.01 µM | 3.1 µM | 4.2 µM | 3.73 µM | 3.43 |  | 5.14 | 3.36 µM | 1.7 | 1.89 | 1.57 | 1.66 | 2.04 | 1.8 | 1.88 |  | 2.32 | 1.76
